Results reported in patent US12195439B1, “C1-substituted isopropylamine fused heterocyclic mescaline derivatives” (Enveric Biosciences Canada Inc., priority 2022, dated 2025).

Biological target: T1, norepinephrine transporter (NET) (Homo sapiens, UniProt P23975)
T1 construct: host or cells: CHO cells (membrane preparation)
Test: Eurofins Cerep competition binding assay at norepinephrine transporter
Details: 10 μM test ligand, [3H]nisoxetine, recombinant transporter from CHO cells

T1 sequence (P23975 whole entry): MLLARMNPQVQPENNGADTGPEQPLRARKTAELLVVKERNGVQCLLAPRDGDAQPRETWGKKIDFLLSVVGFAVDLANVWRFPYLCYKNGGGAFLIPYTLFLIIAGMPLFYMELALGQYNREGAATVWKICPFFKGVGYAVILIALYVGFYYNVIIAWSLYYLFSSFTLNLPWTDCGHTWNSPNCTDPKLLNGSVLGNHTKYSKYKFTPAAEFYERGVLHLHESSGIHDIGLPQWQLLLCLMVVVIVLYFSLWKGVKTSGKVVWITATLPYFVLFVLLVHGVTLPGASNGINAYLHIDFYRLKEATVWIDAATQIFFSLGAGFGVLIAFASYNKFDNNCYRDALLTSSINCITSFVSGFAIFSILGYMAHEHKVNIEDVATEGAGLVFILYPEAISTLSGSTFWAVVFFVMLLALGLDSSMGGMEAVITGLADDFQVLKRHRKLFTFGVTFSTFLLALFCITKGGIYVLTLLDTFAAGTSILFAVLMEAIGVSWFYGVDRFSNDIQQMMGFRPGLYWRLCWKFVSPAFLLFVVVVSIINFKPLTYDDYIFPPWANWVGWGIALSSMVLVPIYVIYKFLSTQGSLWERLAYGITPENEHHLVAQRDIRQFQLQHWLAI

First: CNC(C)Cc1ccc2c(c1)OCO2 (centres unmarked) [MDMA]
Second: COc1cc(CCN)c(OC)cc1Br [2C-B]
The “NET, percent of control-specific binding” value of the first is lower: 3% for the first, 13% for the second.

In the case of `CCOc1c(OC)cc(CCN)cc1OC` [escaline], the “NET, percent of control-specific binding” value is reported as 6%.

Biological target: T2, 5-HT7 receptor (Homo sapiens, UniProt P34969)
T2 construct: host or cells: HEK-293 cells (membrane preparation)
T2 sequence (P34969 whole entry): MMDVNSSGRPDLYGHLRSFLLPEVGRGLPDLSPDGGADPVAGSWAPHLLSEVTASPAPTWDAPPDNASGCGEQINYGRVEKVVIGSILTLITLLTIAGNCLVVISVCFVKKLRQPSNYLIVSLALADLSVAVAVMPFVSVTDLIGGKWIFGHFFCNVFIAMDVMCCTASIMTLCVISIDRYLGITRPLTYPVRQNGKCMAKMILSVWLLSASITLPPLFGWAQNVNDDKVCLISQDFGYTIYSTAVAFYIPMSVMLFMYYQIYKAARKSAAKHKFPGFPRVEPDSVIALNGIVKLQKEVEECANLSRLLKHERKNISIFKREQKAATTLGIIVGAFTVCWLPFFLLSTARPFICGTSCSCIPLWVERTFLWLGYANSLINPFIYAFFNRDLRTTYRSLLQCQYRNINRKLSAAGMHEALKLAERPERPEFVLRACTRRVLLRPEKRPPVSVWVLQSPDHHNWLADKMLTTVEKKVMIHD
Test: Eurofins Cerep competition binding assay at 5-HT7 receptor
Details: 10 μM test ligand, [3H]LSD, recombinant receptor from HEK-293 cells

Going from `CNC(C)Cc1ccc2c(c1)OCO2` (centres unmarked) [MDMA] to `COc1cc(CCN)c(OC)cc1Br` [2C-B], the “HT7, percent of control-specific binding” value rises from 58% to 88%.

For `CCOc1c(OC)cc(CCN)cc1OC` [escaline], the “HT7, percent of control-specific binding” value was 16%.

Biological target: T3, alpha2A receptor (Homo sapiens, UniProt P08913)
T3 construct: host or cells: CHO cells (membrane preparation)
T3 sequence (P08913 1-465): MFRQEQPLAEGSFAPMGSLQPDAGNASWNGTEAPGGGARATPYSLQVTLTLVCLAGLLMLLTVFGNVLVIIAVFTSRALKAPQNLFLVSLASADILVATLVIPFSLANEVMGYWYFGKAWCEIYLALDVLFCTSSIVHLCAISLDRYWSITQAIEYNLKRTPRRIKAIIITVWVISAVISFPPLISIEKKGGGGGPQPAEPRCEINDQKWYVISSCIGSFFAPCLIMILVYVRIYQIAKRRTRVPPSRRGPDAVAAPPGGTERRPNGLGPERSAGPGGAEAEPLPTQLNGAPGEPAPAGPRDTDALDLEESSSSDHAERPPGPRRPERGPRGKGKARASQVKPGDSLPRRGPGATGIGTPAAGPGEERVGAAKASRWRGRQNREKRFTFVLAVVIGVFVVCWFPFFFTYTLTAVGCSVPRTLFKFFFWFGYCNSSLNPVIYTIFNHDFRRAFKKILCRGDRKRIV
Test: Eurofins Cerep competition binding assay at alpha2A receptor
Details: 10 μM test ligand, [3H]RX 821002, recombinant receptor from CHO cells

First: CNC(C)Cc1ccc2c(c1)OCO2 (centres unmarked) [MDMA]
Second: COc1cc(CCN)c(OC)cc1Br [2C-B]
The “α-2A, percent of control-specific binding” value of the first is lower: 27% for the first, 88% for the second.

In the case of `CCOc1c(OC)cc(CCN)cc1OC` [escaline], the “α-2A, percent of control-specific binding” value is reported as 45%.

Biological target: T4, 5-HT2B receptor (Homo sapiens, UniProt P41595)
T4 construct: host or cells: CHO cells (membrane preparation)
T4 sequence (P41595 whole entry): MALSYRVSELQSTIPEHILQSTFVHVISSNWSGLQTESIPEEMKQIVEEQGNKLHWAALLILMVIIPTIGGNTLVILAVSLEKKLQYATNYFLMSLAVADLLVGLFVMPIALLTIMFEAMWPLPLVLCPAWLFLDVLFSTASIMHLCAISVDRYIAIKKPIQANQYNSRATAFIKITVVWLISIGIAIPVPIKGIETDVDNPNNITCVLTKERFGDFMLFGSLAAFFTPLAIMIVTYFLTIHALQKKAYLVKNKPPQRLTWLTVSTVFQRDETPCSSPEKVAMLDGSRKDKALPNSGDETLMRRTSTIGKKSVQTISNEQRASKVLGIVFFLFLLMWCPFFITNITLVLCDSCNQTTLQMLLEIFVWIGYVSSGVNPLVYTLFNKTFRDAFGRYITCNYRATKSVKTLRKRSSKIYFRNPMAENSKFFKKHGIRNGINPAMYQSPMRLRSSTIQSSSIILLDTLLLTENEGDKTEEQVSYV
Test: Eurofins Cerep competition binding assay at 5-HT2B receptor
Details: 10 μM test ligand, [3H]mesulergine, recombinant receptor from CHO cells

Compared with `CNC(C)Cc1ccc2c(c1)OCO2` (centres unmarked) [MDMA], `COc1cc(CCN)c(OC)cc1Br` [2C-B] is higher in “HT2B, percent of control-specific binding” value: 85% for the first, 99% for the second.

In the case of `CCOc1c(OC)cc(CCN)cc1OC` [escaline], the “HT2B, percent of control-specific binding” value is reported as 81%.

Biological target: T5, serotonin transporter (SERT) (Homo sapiens, UniProt P31645)
T5 construct: host or cells: CHO cells (membrane preparation)
T5 sequence (P31645 whole entry): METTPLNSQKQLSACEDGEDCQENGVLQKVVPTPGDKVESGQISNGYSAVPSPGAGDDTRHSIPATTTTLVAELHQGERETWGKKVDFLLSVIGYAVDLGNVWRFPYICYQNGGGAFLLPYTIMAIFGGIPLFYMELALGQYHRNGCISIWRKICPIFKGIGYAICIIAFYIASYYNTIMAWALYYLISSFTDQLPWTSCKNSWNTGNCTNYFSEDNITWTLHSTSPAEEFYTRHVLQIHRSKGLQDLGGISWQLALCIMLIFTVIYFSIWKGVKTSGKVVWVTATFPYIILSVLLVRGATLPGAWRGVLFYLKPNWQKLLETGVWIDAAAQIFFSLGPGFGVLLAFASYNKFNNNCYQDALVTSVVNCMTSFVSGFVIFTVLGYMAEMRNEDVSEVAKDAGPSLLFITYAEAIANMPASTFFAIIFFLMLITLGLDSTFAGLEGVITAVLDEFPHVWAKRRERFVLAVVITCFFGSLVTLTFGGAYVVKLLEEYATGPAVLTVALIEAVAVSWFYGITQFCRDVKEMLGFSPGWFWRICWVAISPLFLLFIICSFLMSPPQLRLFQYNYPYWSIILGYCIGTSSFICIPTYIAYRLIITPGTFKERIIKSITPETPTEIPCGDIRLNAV
Test: biochemical
Format: binding
Details: 10 µM

First: CNC(C)Cc1ccc2c(c1)OCO2 (centres unmarked) [MDMA]
Second: COc1cc(CCN)c(OC)cc1Br [2C-B]
The “SERT, percent of control-specific binding” value of the first is higher: 46% for the first, 42% for the second.

In the case of `CCOc1c(OC)cc(CCN)cc1OC` [escaline], the “SERT, percent of control-specific binding” value is reported as 0%.

Biological target: T6, 5-HT1A receptor (Homo sapiens, UniProt P08908)
T6 construct: purchased Perkin Elmer 6110501400UA
T6 sequence (P08908 1-422): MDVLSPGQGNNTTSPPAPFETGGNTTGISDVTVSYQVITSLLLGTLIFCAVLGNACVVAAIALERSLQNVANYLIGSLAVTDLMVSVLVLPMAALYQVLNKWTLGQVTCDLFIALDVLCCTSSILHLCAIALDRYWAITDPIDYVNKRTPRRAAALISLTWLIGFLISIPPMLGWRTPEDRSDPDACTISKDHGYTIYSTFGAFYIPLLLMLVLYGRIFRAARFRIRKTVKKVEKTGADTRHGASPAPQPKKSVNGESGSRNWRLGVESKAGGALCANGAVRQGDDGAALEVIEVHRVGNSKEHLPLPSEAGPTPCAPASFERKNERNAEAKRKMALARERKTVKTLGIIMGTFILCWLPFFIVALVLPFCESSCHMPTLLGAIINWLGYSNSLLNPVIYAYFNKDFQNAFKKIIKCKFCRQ
Test: 5-HT1A receptor radioligand competition assay (SPA)
Format: binding
Details: competition with 0.5 nM [3H]8-hydroxy-DPAT, membranes containing 5-HT1A, read-out: 5-HT1A, Ki

For `CCOc1c(OC)cc(CCN)cc1OC` [escaline], the Ki was 12.4 µM.

Biological target: T6, 5-HT1A receptor
Test: 5-HT1A receptor functional cellular response (cAMP) assay
Format: cell-based
Details: CHO-K1/5-HT1A/Gα15 cells stimulated with 4 μM forskolin, reduction of intracellular cAMP; read-out: 5-HT1A, EC50

First: CNC(C)Cc1ccc2c(c1)OCO2 (centres unmarked) [MDMA]
Second: COc1cc(CCN)c(OC)cc1Br [2C-B]
The EC50 of the first is higher: > 1000 µM for the first, 5.95 µM for the second.

Biological target: T7, dopamine transporter (DAT) (Homo sapiens, UniProt Q01959)
T7 construct: host or cells: CHO cells (membrane preparation)
T7 sequence (Q01959 whole entry): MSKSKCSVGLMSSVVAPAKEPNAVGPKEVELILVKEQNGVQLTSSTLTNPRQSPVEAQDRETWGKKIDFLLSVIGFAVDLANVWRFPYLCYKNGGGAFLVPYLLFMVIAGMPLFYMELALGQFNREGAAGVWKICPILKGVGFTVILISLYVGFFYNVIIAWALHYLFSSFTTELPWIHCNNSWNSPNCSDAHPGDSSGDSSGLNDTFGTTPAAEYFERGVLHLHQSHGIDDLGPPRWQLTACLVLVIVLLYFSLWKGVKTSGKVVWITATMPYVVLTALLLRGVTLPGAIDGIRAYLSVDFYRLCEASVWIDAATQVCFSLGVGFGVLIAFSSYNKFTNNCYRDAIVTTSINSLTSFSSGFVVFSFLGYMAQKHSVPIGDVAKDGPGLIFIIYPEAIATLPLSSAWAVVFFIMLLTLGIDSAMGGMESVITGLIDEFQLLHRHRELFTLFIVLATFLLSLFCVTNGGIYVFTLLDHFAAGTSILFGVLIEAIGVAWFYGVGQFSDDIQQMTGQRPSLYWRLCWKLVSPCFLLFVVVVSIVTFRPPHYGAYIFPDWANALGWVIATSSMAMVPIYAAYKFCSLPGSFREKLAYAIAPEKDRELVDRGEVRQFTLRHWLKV
Test: Eurofins Cerep competition binding assay at dopamine transporter
Details: 10 μM test ligand, [3H]BTCP, recombinant transporter from CHO cells

Compared with `CNC(C)Cc1ccc2c(c1)OCO2` (centres unmarked) [MDMA], `COc1cc(CCN)c(OC)cc1Br` [2C-B] is lower in “DAT, percent of control-specific binding” value: 28% for the first, 5% for the second.

For `CCOc1c(OC)cc(CCN)cc1OC` [escaline], the “DAT, percent of control-specific binding” value was 0%.

Biological target: T8, MT1 receptor (Homo sapiens, UniProt P48039)
T8 construct: host or cells: CHO cells (membrane preparation)
T8 sequence (P48039 whole entry): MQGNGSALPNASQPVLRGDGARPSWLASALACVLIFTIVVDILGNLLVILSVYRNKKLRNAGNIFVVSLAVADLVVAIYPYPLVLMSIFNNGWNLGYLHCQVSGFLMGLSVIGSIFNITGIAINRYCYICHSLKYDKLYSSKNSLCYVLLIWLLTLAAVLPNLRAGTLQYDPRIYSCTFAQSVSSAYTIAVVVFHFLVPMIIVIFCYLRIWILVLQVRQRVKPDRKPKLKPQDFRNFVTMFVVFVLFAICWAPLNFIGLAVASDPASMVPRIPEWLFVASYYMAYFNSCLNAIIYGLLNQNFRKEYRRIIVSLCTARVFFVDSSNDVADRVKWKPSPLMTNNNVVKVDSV
Test: Eurofins Cerep competition binding assay at MT1 receptor
Details: 10 μM test ligand, [125I]2-iodomelatonin, recombinant receptor from CHO cells

First: CNC(C)Cc1ccc2c(c1)OCO2 (centres unmarked) [MDMA]
Second: COc1cc(CCN)c(OC)cc1Br [2C-B]
The “MT1, percent of control-specific binding” value of the first is lower: 1% for the first, 86% for the second.

With `CCOc1c(OC)cc(CCN)cc1OC` [escaline] the “MT1, percent of control-specific binding” value was 0%.

Biological target: T9, 5-HT2C receptor (Homo sapiens, UniProt P28335)
T9 construct: host or cells: HEK-293 cells (membrane preparation)
T9 sequence (P28335 33-458): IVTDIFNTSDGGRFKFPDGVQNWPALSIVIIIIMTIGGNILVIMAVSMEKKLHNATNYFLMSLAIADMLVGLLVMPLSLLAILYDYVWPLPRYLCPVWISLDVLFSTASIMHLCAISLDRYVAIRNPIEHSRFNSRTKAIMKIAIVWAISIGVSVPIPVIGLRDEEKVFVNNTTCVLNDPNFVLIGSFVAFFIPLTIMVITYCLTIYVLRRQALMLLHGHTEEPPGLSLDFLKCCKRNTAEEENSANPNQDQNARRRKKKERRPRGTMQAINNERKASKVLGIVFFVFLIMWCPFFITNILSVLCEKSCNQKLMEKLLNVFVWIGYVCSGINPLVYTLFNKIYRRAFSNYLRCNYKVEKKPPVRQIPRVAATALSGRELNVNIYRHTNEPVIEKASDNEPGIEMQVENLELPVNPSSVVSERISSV
Test: Eurofins Cerep competition binding assay at 5-HT2C receptor
Details: 10 μM test ligand, [125I](±)DOI, recombinant receptor from HEK-293 cells

First: CNC(C)Cc1ccc2c(c1)OCO2 (centres unmarked) [MDMA]
Second: CCOc1c(OC)cc(CCN)cc1OC [escaline]
The “HT2C, percent of control-specific binding” value of the first is higher: 96% for the first, 95% for the second.

Biological target: T6, 5-HT1A receptor
Test: Eurofins Cerep competition binding assay at 5-HT1A receptor
Details: 10 μM test ligand, [3H]8-OH-DPAT, recombinant receptor from HEK-293 cells

First: CNC(C)Cc1ccc2c(c1)OCO2 (centres unmarked) [MDMA]
Second: COc1cc(CCN)c(OC)cc1Br [2C-B]
The “HT1A, percent of control-specific binding” value of the first is lower: 68% for the first, 96% for the second.

In the case of `CCOc1c(OC)cc(CCN)cc1OC` [escaline], the “HT1A, percent of control-specific binding” value is reported as 44%.
